# Reference: patent US9549941B2, “Compositions and methods for treating hepatitis C virus” (priority 2011, dated 2017)
# Columns and labels:
# [1] = tested on: 1b con-1 sub-genomic replicon, NS5B S282T; format: cell-based, hepatitis C virus; settings: genotype 1b, S282T from corresponding wild-type
# Experimental: (§1) (Lam et al., J. Virology (2011) 85(23): 12334-12342; Lam et al., Antimicrob. Agents Chemother. (2012) 56(6): 3359-3368.) S282T mutations in NS5B were created by site-directed mutagenesis in 1a-H77, 1b con-1, and 2a JFH1 sub-genomic replicons. 1b con-1-based chimeric replicons containing 2b, 3a, 4a, 5a, or 6a NS5B were also engineered to harbor the S282T mutation. […] Relative percentages of mutant and WT were assessed by deep sequencing.
# [2] = tested on: 1b con-1-based chimeric replicon containing 3a NS5B S282T; format: cell-based, hepatitis C virus; settings: genotype 3a, S282T from corresponding wild-type
# Experimental: as §1
# [3] = tested on: 1b con-1-based chimeric replicon containing 4a NS5B S282T; format: cell-based, hepatitis C virus; settings: genotype 4a, S282T from corresponding wild-type
# Experimental: as §1
# [4] = tested on: 1b con-1-based chimeric replicon containing 5a NS5B S282T; format: cell-based, hepatitis C virus; settings: genotype 5a, S282T from corresponding wild-type
# Experimental: as §1
# [5] = tested on: 2a JFH1 sub-genomic replicon, NS5B S282T; format: cell-based, hepatitis C virus; settings: genotype 2a, S282T from corresponding wild-type
# Experimental: as §1
# [6] = tested on: 1a-H77 sub-genomic replicon, wild-type NS5B; test: Transient replicon assay; format: cell-based; settings: Hepatitis C virus, read-out: EC50 WT
# Experimental: as §1
# [7] = tested on: 1b con-1-based chimeric replicon containing 5a NS5B, wild-type; test: Transient replicon assay; format: cell-based; settings: Hepatitis C virus, read-out: EC50 WT
# Experimental: as §1
# [8] = tested on: mixture of 50% S282T and 50% WT in GT2a replicons; test: Long-term passaging study with deep sequencing; format: cell-based, hepatitis C virus; design: population mutant S282T: concentration or dose not given beside the values; settings: over fifteen days
# Source text: as §1, with “In vitro studies have shown that S282T is the primary mutation selected by GS-7977 in HCV genotype 1a, 1b and 2a replicon cells. (Lam” for “(Lam”
# (See also Han et al., 63rd Annual Meeting of the American Association for the Study of Liver Diseases, Poster 1078, Nov. 11, 2012.)
# HCV NS5B S282T = test: GS-7977 resistance in Phase 2 clinical studies, population and deep sequencing of NS5B; format: in vivo, human; settings: one GT2b patient, relapse 4 weeks after 12 weeks of monotherapy
smiles,measurement,setting,value
"CC(C)OC(=O)[C@H](C)N[P@](=O)(OC[C@H]1O[C@@H](n2ccc(=O)[nH]c2=O)[C@](C)(F)[C@@H]1O)Oc1ccccc1 [GS-7977, (S)-isopropyl 2-(((S)-(((2R,3R,4R,5R)-5-(2,4-dioxo-3,4-dihydropyrimidin-1(2H)-yl)-4-fluoro-3-hydroxy-4-methyltetrahydrofuran-2-yl)methoxy)(phenoxy)phosphoryl)amino)propanoate]",Fold Change,[1],8.8
same,Fold Change,[2],3.5
same,Fold Change,[3],6.1
same,Fold Change,[4],14.35
same,Fold Change,[5],2.4
same,EC50,[6],25.1 nM
same,EC50,[7],9.91 nM
same,population mutant S282T,[8],92%
same,S282T at relapse by deep sequencing,HCV NS5B S282T,99%
